Article PMC5062114, “Dual-targeting anti-angiogenic cyclic peptides as potential drug leads for cancer therapy” (Scientific Reports, 2016)
Bridge positions count the residues as written; N and C are the ends. Square brackets hold non-standard residues; d marks the D form. Ends that are not written are not given here. Peptide text beside a SMILES is read from it.

What was measured:
Test in all cases: cells
[1] = test system: HT-29; settings: read-out: IC50 ± S.D.; 48 hours, HT-29; cell proliferation inhibition, MTT, 48-h incubation, 1.5 × 10^3 cells/well, triplicate, mean ± SD
Procedure: (§1) HUVECs (human umbilical vein endothelial cells) were cultured in EGM™-2 BulletKit™ supplemented with SingleQuots™ (supplements: growth factors, cytokines, antibiotics; Lonza) and 10% FBS (catalog no. FFBS-500; Scientifix). Both HT-29 and MCF-7 cells were cultured in 10% FBS/DMEM (Dulbecco’s Modified Eagle Medium) with 1% penicillin–streptomycin (5000 U/mL; Life Technologies), whereas PC3 cells (prostate cancer cells) were cultured in 10% FBS/RPMI (Roswell Park Memorial Institute) 1640 with 1% penicillin–streptomycin (5000 U/mL; Life Technologies). All cells were maintained at 37 °C in 5% CO2.
(§2) Cell cytotoxicity and proliferation assays were performed using similar methods to those described by Chan et al.[45]. All cells were maintained using the media conditions described above, and passages two to ten were used for all cell lines. For all cell lines, 5.0 × 10^3 cells/well (100 μL) and 1.5 × 10^3 cells/well (100 μL) were used for cell cytotoxicity and cell proliferation assays, respectively. All peptides (10 μL, at final concentrations ranging from 0.05–100 μM) and drugs, which included cilengitide, octreotide and sunitinib (at final concentrations ranging from 0.00001–100 μM), were used in both assays. Triton X-100 (0.1% (v/v); 10 μL) was used as a positive control. Cells were treated with fresh media the day after plating, before the addition of peptides, followed by a subsequent 2-h and 48-h incubation for cell cytotoxicity and cell proliferation, respectively. After different incubation periods, 3-(4, 5-dimethylthiazolyl-2)-2,5-diphenyltetrazolium bromide (MTT) (10 μL; 5 mg/mL in PBS) was added, and cells were incubated for a further 4 h. The supernatant was then removed and 100 μL DMSO added to solubilize formazan salts. Experiments were performed in triplicate. Cell numbers were recorded at 600 nm. All data represent average mean ± SD.

[2] = test system: HUVEC; settings: read-out: IC50 ± S.D.; 48 hours, HUVEC; cell proliferation inhibition, MTT, 48-h incubation, 1.5 × 10^3 cells/well, triplicate, mean ± SD
Procedure: as §1, §2

[3] = test system: MCF-7; settings: read-out: IC50 ± S.D.; 48 hours, MCF-7; cell proliferation inhibition, MTT, 48-h incubation, 1.5 × 10^3 cells/well, triplicate, mean ± SD
Procedure: as §1, §2

[4] = test system: PC3; settings: read-out: IC50 ± S.D.; 48 hours, PC3; cell proliferation inhibition, MTT, 48-h incubation, 1.5 × 10^3 cells/well, triplicate, mean ± SD
Procedure: as §1, §2

## CC[C@H](C)[C@@H]1NC(=O)[C@@H]2CCCN2C(=O)[C@@H]2CCCN2C(=O)[C@H]([C@@H](C)CC)NC(=O)[C@H](CO)NC(=O)[C@H](CCCCN)NC(=O)[C@H]([C@@H](C)O)NC(=O)[C@@H]2CSSC[C@H](NC1=O)C(=O)N[C@@H](CCCNC(=N)N)C(=O)N[C@@H](Cc1ccccc1)C(=O)N[C@H](Cc1c[nH]c3ccccc13)C(=O)N[C@@H](CCCCN)C(=O)N[C@@H]([C@@H](C)O)C(=O)N[C@@H](Cc1c[nH]c3ccccc13)C(=O)N2 [SFTI-SST-02] (cyclo(CRF[dW]KTWCTKSIPPI); disulfide 1-8)
[1]
  IC50: 43.29 ± 0.04 µM
[2]
  IC50: > 100 µM
[3]
  IC50: 55.13 ± 0.07 µM
[4]
  IC50: > 100 µM

## CC[C@H](C)[C@@H]1NC(=O)[C@H](CCCNC(=N)N)NC(=O)[C@H](CCCNC(=N)N)NC(=O)[C@H](CCCNC(=N)N)NC(=O)[C@H](CCCCN)NC(=O)[C@H](CCCNC(=N)N)NC(=O)[C@H](CCCNC(=N)N)NC(=O)[C@@H]2CSSC[C@H](NC1=O)C(=O)N[C@@H](Cc1ccccc1)C(=O)N1CCC[C@H]1C(=O)N[C@@H](CC(=O)O)C(=O)NCC(=O)N[C@@H](CCCNC(=N)N)C(=O)N2 [SFTI-polyR-L1] (cyclo(CFPDGRCRRKRRRI); disulfide 1-7)
[1]
  IC50: 82.27 ± 0.13 µM
[2]
  IC50: > 100 µM
[3]
  IC50: 28.72 ± 0.15 µM
[4]
  IC50: > 100 µM

## YHLNQPF [PEDF, reference compound]
[1]
  IC50: > 100 µM
[2]
  IC50: 19.4 ± 0.08 µM
[3]
  IC50: > 100 µM
[4]
  IC50: > 100 µM

## CC[C@H](C)[C@@H]1NC(=O)[C@@H]2CCCN2C(=O)[C@@H]2CCCN2C(=O)[C@H]([C@@H](C)CC)NC(=O)[C@H](CO)NC(=O)[C@H](CCCCN)NC(=O)[C@H]([C@@H](C)O)NC(=O)[C@@H]2CSSC[C@H](NC1=O)C(=O)N[C@@H](Cc1ccccc1)C(=O)N1CCC[C@H]1C(=O)N[C@@H](CC(=O)O)C(=O)NCC(=O)N[C@@H](CCCNC(=N)N)C(=O)N2 [SFTI-1, sunflower trypsin inhibitor-1, reference compound]
[1]
  IC50: > 100 µM
[2]
  IC50: > 100 µM
[3]
  IC50: > 100 µM
[4]
  IC50: > 100 µM
